How the values were obtained:
Assay type in all cases: cell-based
[1] = molecular target: T1, pERK1/2 (Thr202/Tyr204), NCI-1H358 (KRAS G12C) (Homo sapiens, UniProt P01116, G12C); assay: Assay of intracellular pERK1/2 (Thr202/Tyr204) phosphorylation in NCI-H358 cells (KRAS G12C); conditions: pERK1/2, 2 days, read-out: NCI-H358 (KRAS G12C) IC50
T1 construct: pERK1/2 HTRF read-out
Protocol: (§1) Example 2: Assay of intracellular pERK1/2 (Thr202/Tyr204)phosphorylation
(§2) 1. Reagents and materials: • pERK1/2 (Thr202/Tyr2O4) HIRE kit, Cisbio, Cat #64ERKPEH; • OptiPlate™-384-well plate, PerkinElmer, Cat #6007299; • 96-well plate, Coming, Cat #353072; • Instrument: EnVision2104, PerkinElmer; • Cell lines: NCI-1H358 (KRAS G12C), ATCC, CRL-5807; PANC-1 (KRAS G121D), ATCC, CRL-1469; NCI-1H441 (KRAS G12V), ATCC, HTB-174.
(§3) 2. Preparation of Reaction Solutions
(§4) • A test compound was dissolved in DMSO, diluted to 200.0 μM and further diluted 3-fold to prepare a series of test compounds at concentrations of 66.7, 22.2, 7.4, 2.5, 0.82, 0.27, 0.09 μM etc. Then 10 μL of the compound at different dilution concentrations was added to 190 μL of a DMEM medium to prepare a 10× test compound; • 1× cell lysis buffer: 4× cell lysis stock solution (provided by the kit) was diluted 4-fold with deionized water, and then 10% 100× blocking stock solution (provided by the kit) was added thereto. • pERK1/2 detection solution (prepared just before use): the pERK1/2 d2 antibody (provided by the kit) and pERK1/2 Cryptate antibody (provided by the kit) were diluted with the detection solution (provided by the kit) at a ratio of 1:1:38.
(§5) • Cells were inoculated into a 96-well plate (100 μL/well) at a density of 10000-12000/well. No cell was inoculated into a negative control well, and only the cell medium was added at 100 μL/well. The plate was placed in a cell incubator at 5% CO2 and 37° C. overnight. • 10 μL of the 10× test compound was added to the 100 μL cell culture 96-well plate; both the positive control well (that is, the control hole without chemical compound treatment) and the negative control well were charged with 10 μL of a 5% DMSO culture solution; and the plate was cultured in a cell incubator at 5% CO2 and 37° C. for 2 days. • The medium in the 96-well plate was removed; 50 μL of the 1× cell lysis buffer was added to each of the wells; the plate was placed in a microplate shaker; and lysis under shaking was carried out at 900 rpm at room temperature for 1 hour. • 16 μL of the lysis buffer in the 96-well plate was taken and transferred to a 384-well plate, followed by centrifugation at 1000 rpm for 30 s; then 4 μL of pERK1/2 detection solution was added to each well, followed by centrifugation at 1000 rpm for 30 s; and the 384-well plate was sealed with a sealing membrane and incubated at 25° C. on a low-speed shaker at 100 rpm in the dark for 2 hours. • The fluorescence value (RFU) of each well was detected on EnVision2104, with an emission wavelength 1 being 665 nm and an emission wavelength 2 being 615 nm.
(§6) Fluorescence ratio=fluorescence value665 nm/fluorescence value615 nm
(§7) Inhibition rate (%)=100−((fluorescence ratio of compound well−fluorescence ratio of negative control well)/(fluorescence ratio of positive control well−fluorescence ratio of negative control well))×100
(§8) wherein: • the fluorescence ratio of compound well refers to the fluorescence ratio of the well containing the test compounds; • the fluorescence ratio of negative control well refers to the fluorescence ratio of the cell-free control well; • the fluorescence ratio of positive control well refers to the fluorescence ratio of the cell well treated with 0.5% DMSO.
(§9) IC50 value: obtained by calculation using XL-Fit 5.0 software.

[2] = molecular target: T2, pERK1/2 (Thr202/Tyr204), NCI-1H441 (KRAS G12V) (Homo sapiens, UniProt P01116, G12V); assay: Assay of intracellular pERK1/2 (Thr202/Tyr204) phosphorylation in NCI-H441 cells (KRAS G12V); conditions: pERK1/2, 2 days, read-out: NCI-H441 (KRAS G12V) IC50
T2 construct: pERK1/2 HTRF read-out
T2 sequence (P01116 1-188 isoform P01116-2 G12V): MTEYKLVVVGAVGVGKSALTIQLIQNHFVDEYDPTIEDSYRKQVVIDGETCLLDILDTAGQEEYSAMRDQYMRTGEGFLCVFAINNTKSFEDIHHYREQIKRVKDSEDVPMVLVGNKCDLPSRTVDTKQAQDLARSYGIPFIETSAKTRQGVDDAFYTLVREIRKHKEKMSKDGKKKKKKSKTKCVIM
Protocol: as §1, §2, §3, §4, §5, §6, §7, §8, §9

[3] = molecular target: T3, pERK1/2 (Thr202/Tyr204), PANC-1 (KRAS G121D) (Homo sapiens, UniProt P01116, G12D); assay: Assay of intracellular pERK1/2 (Thr202/Tyr204) phosphorylation in PANC-1 cells (KRAS G12D); conditions: pERK1/2, 2 days, read-out: PANC-1 (KRAS G12D) IC50
T3 construct: pERK1/2 HTRF read-out
T3 sequence (P01116 1-188 isoform P01116-2 G12D): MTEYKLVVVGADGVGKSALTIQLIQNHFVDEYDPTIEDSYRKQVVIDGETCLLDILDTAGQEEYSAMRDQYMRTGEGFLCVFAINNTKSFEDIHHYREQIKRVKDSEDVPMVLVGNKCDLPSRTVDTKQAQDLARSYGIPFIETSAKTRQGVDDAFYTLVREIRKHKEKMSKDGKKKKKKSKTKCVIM
Protocol: as §1, §2, §3, §4, §5, §6, §7, §8, §9

T1 sequence (P01116 1-188 isoform P01116-2 G12C): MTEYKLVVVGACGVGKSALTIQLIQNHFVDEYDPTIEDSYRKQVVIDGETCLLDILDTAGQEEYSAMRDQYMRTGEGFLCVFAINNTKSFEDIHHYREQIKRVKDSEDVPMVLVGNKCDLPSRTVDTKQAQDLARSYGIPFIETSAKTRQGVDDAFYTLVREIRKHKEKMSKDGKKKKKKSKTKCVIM

IC50 [1] [nM]	IC50 [2] [nM]	IC50 [3] [nM]	Structure (SMILES)
783	> 1000	> 1000	C[C@H](c1cccnc1N)N1CCOc2nc(-c3cc(O)cc(Cl)c3C3CC3)c(F)c3nc(OC[C@@H]4CCN4CC(F)F)nc1c23 (single isomer, unassigned) [Compound 20, 3-(10-((R or S)-1-(2-aminopyridin-3-yl)ethyl)-2-(((S)-1-(2,2-difluoroethyl)azetidin-2-yl)methoxy)-4-fluoro-9,10-dihydro-8H-7-oxa-1,3,6,10-tetraazacyclohepta[de]naphthalen-5-yl)-5-chloro-4-cyclopropylphenol]
0.5	3	82	CC(c1cccnc1N)N1CCOc2nc(-c3cc(O)cc(Cl)c3C3CC3)c(F)c3nc(OC[C@@H]4CCN4CC(F)F)nc1c23 (single isomer, unassigned) [Compound 21, 3-(10-((R or S)-1-(2-aminopyridin-3-yl)ethyl)-2-(((S)-1-(2,2-difluoroethyl)azetidin-2-yl)methoxy)-4-fluoro-9,10-dihydro-8H-7-oxa-1,3,6,10-tetraazacyclohepta[de]naphthalen-5-yl)-5-chloro-4-cyclopropylphenol]
> 1000	> 1000	> 1000	CC(c1cccnc1N)N1CCOc2nc(-c3cc(O)cc(F)c3C3CC3)c(F)c3nc(OC[C@@H]4CCN4CC(F)F)nc1c23 (single isomer, unassigned) [Compound 23, 3-(10-((R or S)-1-(2-aminopyridin-3-yl)ethyl)-2-(((S)-1-(2,2-difluoroethyl)azetidin-2-yl)methoxy)-4-fluoro-9,10-dihydro-8H-7-oxa-1,3,6,10-tetraazacyclohepta[de]naphthalen-5-yl)-4-cyclopropyl-5-fluorophenol]
3	11	290	CC(c1cccnc1N)N1CCOc2nc(-c3cc(O)cc(F)c3C3CC3)c(F)c3nc(OC[C@@H]4CCN4CC(F)F)nc1c23 (single isomer, unassigned) [Compound 24, 3-(10-((R or S)-1-(2-aminopyridin-3-yl)ethyl)-2-(((S)-1-(2,2-difluoroethyl)azetidin-2-yl)methoxy)-4-fluoro-9,10-dihydro-8H-7-oxa-1,3,6,10-tetraazacyclohepta[de]naphthalen-5-yl)-4-cyclopropyl-5-fluorophenol]
886	> 1000	> 1000	C[C@H](c1cccnc1N)N1CCOc2nc(-c3c(C(F)(F)F)ccc4[nH]ncc34)c(F)c3nc(OC[C@@]45CCCN4C[C@H](F)C5)nc1c23 (single isomer, unassigned) [Compound 26, 3-((1R or 1S)-1-(4-fluoro-2-(((2R,7aS)-2-fluorotetrahydro-1H-pyrrolizin-7a(5H)-yl)methoxy)-5-(5-(trifluoromethyl)-1H-indazol-4-yl)-8,9-dihydro-10H-7-oxa-1,3,6,10-tetraazacyclohepta[de]naphthalen-10-yl)ethyl)pyridin-2-amine]
> 100			Cc1cc(N)cc(-c2nc3c4c(nc(OC[C@@]56CCCN5C[C@H](F)C6)nc4c2F)N(C(C)c2cccnn2)CCO3)c1C(F)(F)F (single isomer, unassigned) [Compound 128, 3-(4-fluoro-2-(((2R,7aS)-2-fluorotetrahydro-1H-pyrrolizin-7a(5H)-yl)methoxy)-10-((R or S)-1-(pyridazin-3-yl)ethyl)-9,10-dihydro-8H-7-oxa-1,3,6,10-tetraazacyclohepta[de]naphthalen-5-yl)-5-methyl-4-(trifluoromethyl)aniline]
> 100			Cc1ccc(C(C)N2CCOc3nc(-c4cc(N)c(F)c(C)c4C(F)(F)F)c(F)c4nc(OC[C@@]56CCCN5C[C@H](F)C6)nc2c34)c(N)n1 (single isomer, unassigned) [Compound 252, 3-((R or S)-1-(5-(5-amino-4-fluoro-3-methyl-2-(trifluoromethyl)phenyl)-4-fluoro-2-(((2R,7aS)-2-fluorotetrahydro-1H-pyrrolizin-7a(5H)-yl)methoxy)-8,9-dihydro-10H-7-oxa-1,3,6,10-tetraazacyclohepta[de]naphthalen-10-yl)ethyl)-6-methylpyridin-2-amine]
